Reference: patent publication US7098334B2 (Industrial Research Limited, priority 2002, dated 2006)

Experiments:
[1] = target: MTAN (Escherichia coli, UniProt P0AF12); assay: Enzyme inhibition assay, MTAN (slow-onset inhibition constants); format: biochemical; conditions: MTAN
Procedure: Ki as shown in Tables 1 and 2 is the initial inhibition constant formed by the enzyme-inhibitor complex, and Ki* is the equilibrium dissociation constant for inhibition that is observed following a period of slow-onset, tight binding inhibition. Ki* is the biologically effective constant.
Enzyme assays were conducted to assess the effectiveness of selected compounds of the invention as inhibitors of MTAP and MTAN.
Inhibitors.—Inhibitor concentrations were determined by the UV absorbance spectrum using the published millimolar extinction coefficients for 9-dazadenine of 8.5 at 275 nm at pH 7.0.
Assays.—The direct spectrophotometric assay for the conversion of MTA into adenine was measured as the decrease in absorbance at 274 nm. At 274 nm, Δε between MTA and adenine is at a maximum and produces a spectral change of 1.6 absorbance units/cm/mM (DeWolf, W. E. Jr., Fullin, F. A., and Schramm, V. L. (1979) J. Biol. Chem. 254, 10868–10875)
Slow-Onset Inhibition and Inhibition Constants.—The kinetics for slow onset inhibition and the Ki measurement was carried out by adding a known concentration of enzyme (1–5 nM) to a reaction mixture containing a substrate concentration of 200 μM. This concentration corresponds to an OD of 0.7–1.1 at […]. The formation of product was monitored as a decrease in absorbance at 274 nm. Conditions for Ki* determination used high concentrations of substrate. Two controls, one having no inhibitor and the other no enzyme were included in the experiment. The Ki values MTAP for the various compounds were calculated by fitting in the ratio of initial rates in the presence of inhibitor to without any inhibitor versus the inhibitor concentration, for the known Km and substrate concentration into the following expression.
Where Vo′ is the rate in the presence of inhibitor • Vo rate in the absence of inhibitor • [I] inhibitor concentration • And [S] is the substrate concentration
And the Ki* was calculated by fitting to the following expression
Where Vs′ is the steady-state rate following attainment of equilibrium in the presence inhibitor, and Vs is the steady-state rate in the control having no inhibitor. Both these equations are valid for competitive type inhibition.

[2] = test system: Lewis lung carcinoma cells; assay: Radiation sensitizing effect on Lewis lung carcinoma cells; format: cell-based; conditions: 5′-methylthio-ImmA at 2 μM; 10 Gy X-ray; cells counted by Trypan Blue after 48 hrs
Procedure: Lewis lung carcinoma cells (1×10^6) were plated and allowed to adhere overnight in 2 mL of DMEL medium substituted with 10% fetal bovine serum, 1% Pen-Strep, 2.5% Na-Pyruvate, 1% non-essential amino acids in 6 well plates. 50 μM MTA, 50 μM MTA+2 μM 5′-methylthio-ImmA or 2 μM 5′-methylthio-ImmA was then added in 1 mL of the same medium as indicated. Control wells were treated with medium without any additions. This treatment was allowed to continue for 6 hours. In each experiment one set of treated cells were subjected to 10 Gy of X-ray irradiation and a control set received no irridation. Both irradiated and unirradiated cells were then cultured for another 48 hours in the presence of MTA±5′-methylthio-ImmA. Manual counting of living and dead cells was done by Trypan Blue dye exclusion following 48 hrs of growth. (Approximate doubling time for Lewis Lung cells was 24 hours.)

[3] = target: T1, MTAP activity in mouse blood (Mus musculus, UniProt Q9CQ65); assay: MTAP activity in blood of treated mice; format: in vivo; conditions: interperitoneal injection of 10 micromoles; blood sampled 30 min following injection
T1 construct: from tissue; host or cells: mouse blood
T1 sequence (Q9CQ65 1-283): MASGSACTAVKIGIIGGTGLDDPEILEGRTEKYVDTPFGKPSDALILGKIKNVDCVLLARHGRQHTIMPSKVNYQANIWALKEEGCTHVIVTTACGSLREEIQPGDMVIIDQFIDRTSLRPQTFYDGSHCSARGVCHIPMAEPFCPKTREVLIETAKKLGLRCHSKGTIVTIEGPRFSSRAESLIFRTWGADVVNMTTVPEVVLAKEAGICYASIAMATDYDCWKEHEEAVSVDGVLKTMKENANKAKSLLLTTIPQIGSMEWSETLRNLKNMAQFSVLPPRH
Procedure: (§1) 5′-Methylthio-Immucillin-A (5′-methylthio-ImmA) (10 micromoles) was administered to mice orally, by interperitoneal injection or by intravenous injection. Following 30 to 60 min, blood was collected or mice were sacrificed and the liver removed for tissue analysis. MTAP activity in mouse blood was measured by the conversion of radioactive MTA to radioactive 5-methylthio-α-D-ribose 1-phosphate (MTR-1P). The assay mixture contained 50 mM phosphate buffer, 1 mM dithiothreitol, 26 μM [5′-^14C]MTA with specific radioactivity of 2 μCi/μmole, 0.5% triton X-100, and the desired amount of tissue sample, in a total volume of 100 μL. Reactions were stopped at various times by the addition of perchloric acid to decrease the pH to 2.0. The protein precipitate was removed by centrifugation, and the supernatant was neutralized to near pH 7 before being placed on a charcoal column. The column was eluted with buffer near pH 7. The product MTR-1P elutes, while unreacted [5′-^14C]MTA remains on the column. The amount of MTAP activity from control and treated mice is compared.

[4] = target: T2, mouse liver MTAP (Mus musculus, UniProt Q9CQ65); assay: MTAP activity in liver extracts of treated mice; format: in vivo
T2 construct: from tissue; host or cells: mouse liver protein extract
T2 sequence (Q9CQ65 1-283): T1 sequence (Q9CQ65 1-283)
Procedure: as §1, with “Following” for “5′-Methylthio-Immucillin-A (5′-methylthio-ImmA) (10 micromoles) was administered to mice orally, by interperitoneal injection or by intravenous injection. Following”

[5] = oral administration of 10 μmoles

Chain of MTAN (P0AF12 whole entry): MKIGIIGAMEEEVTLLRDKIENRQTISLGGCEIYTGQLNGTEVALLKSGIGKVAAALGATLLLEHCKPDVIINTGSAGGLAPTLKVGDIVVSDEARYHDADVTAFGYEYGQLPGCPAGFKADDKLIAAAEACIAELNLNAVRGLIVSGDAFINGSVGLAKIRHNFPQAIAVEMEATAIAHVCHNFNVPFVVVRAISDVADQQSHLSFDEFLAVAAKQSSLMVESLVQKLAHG

For `CSC[C@H]1N[C@@H](c2c[nH]c3c(N)ncnc23)C(O)[C@H]1O` (stereo partly drawn) [5′-methylthio-ImmA], the Ki ([1]; Ki*, equilibrium dissociation constant after slow-onset, tight binding inhibition) was 0.077 ± 0.02 nM, the Ki ([1]; Ki, initial inhibition constant) was 0.13 ± 0.012 nM and the “Ki*” value ([1]; equilibrium dissociation constant after slow-onset, tight binding inhibition) was “in the pM range”. For the same compound, the “effect on cell growth and irradiation damage (FIG. 2)” value [2] was “acts in a similar manner to 50 μM MTA”, the “inhibition of MTAP in mouse blood compared to control blood” value [3] was over 90% and the “reduction of MTAP activity of liver extract” value ([4]; intraperitoneal injection of 0.1 micromole) was 70%. For the same compound, the “reduction of MTAP activity of liver extract” value ([4]; intraperitoneal injection of 1.0 micromole) was 77%, the “MTAP activity in liver extracts (in words)” value ([4]; intravenous injection) was “no detectable MTAP activity” and the “inhibition of liver MTAP” value ([4]; intravenous injection) was over 95%. For the same compound, the “inhibition of liver MTAP” value [4, 5] was 90%, the “oral availability to MTAP inside tissues (in words)” value [4, 5] was “orally available” and the “rate of conversion of MTA to products by MTAP in extracts of liver” value ([4]; oral administration of 10 μmoles, control 1.0) was 0.09 nMole/min/mg of liver protein extract.
